The results in this text go back to ChEMBL document CHEMBL1128197 (J Med Chem, 1995).

For this assay, the target named is Translocator protein (Rattus norvegicus, UniProt P16257). The assay can be described thus: Binding affinity constant for peripheral (mitochondrial) Benzodiazepine receptor.
Sequence of Translocator protein (P16257 whole entry, looked up): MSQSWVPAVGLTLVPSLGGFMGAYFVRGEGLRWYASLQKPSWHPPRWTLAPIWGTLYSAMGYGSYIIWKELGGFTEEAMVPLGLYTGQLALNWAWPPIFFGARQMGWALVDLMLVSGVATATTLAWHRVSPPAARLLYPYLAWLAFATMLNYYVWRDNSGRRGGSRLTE
One may read the Kd as the equilibrium constant for the complex coming apart. Higher therefore signals lower affinity. `CN1CCN=C(c2ccccc2)c2cc(Cl)ccc21` [MEDAZEPAM] displayed a Kd greater than 10 nM.

Broadly, the Ki is the equilibrium dissociation constant of an inhibitor or competing ligand from its target. In turn, `CN(C)C(=O)OC1=C(c2ccccc2)Sc2ccccc2-n2cccc21` showed a Ki of 9 nM.

On to `COc1ccc(C2=C(OC(=O)c3cc(OC)c(OC)c(OC)c3)c3cccn3-c3cc(Cl)ccc3S2)cc1`, for which the Ki was greater than 10 nM.

`C1=C(c2ccccc2)Sc2ccccc2-n2cccc21` yielded a Ki of 3150 nM.

For `COc1ccc(C2=C(OC(=O)c3cccnc3)c3cccn3-c3ccccc3S2)cc1`, the Ki was greater than 10 nM.

With `CC(=O)OC1=C(c2ccc(Cl)cc2)Sc2ccccc2-n2cccc21`, the Ki came to 30 nM.

As for `COC1=C(c2ccccc2)Sc2ccccc2-n2cccc21`, affinity was put at a Ki of 7000 nM.

With `COc1ccc(C2=C(OS(C)(=O)=O)c3cccn3-c3ccccc3S2)cc1`, the affinity, expressed as Ki, was 95 nM.
